Usually IC50 stands for the concentration at which inhibition is half-maximal. For orientation: solubility means the dissolved amount per volume that the medium holds.

Where two headings read alike, the source gives them in different places.

The results in this text go back to patent US5585382A, “Polycyclic and heterocyclic chromophores for bis-imide tumoricidals” (The DuPont Merck Pharmaceutical Company, priority 1995, dated 1996).

The subject of series [1] is Murine leukemia L1210 cells. In words: In vitro growth inhibition of L1210 cells (MTT, 72 hr). The settings on record: Mus musculus, read-out: L1210 IC50. The class given is cell-based. An outline of the steps:
(§1)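 Cells seeded on day 0 (1×10^3 L1210 or 8×10^2 Clone A per well), graded compound concentrations added on day 1, then 72 hr at 37 °C. MTT 4 h, formazan dissolved in acidic isopropanol, read at 570/630 nm; IC50 from curve fit as half-maximal inhibition of population doublings, eight replicates.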

Series [2] concerns Clone A human colon cancer cells. Briefly: In vitro growth inhibition of Clone A cells (MTT, 72 hr). To be noted: read-out: Clone A IC50. The series is classed as cell-based. The method in brief: as §1
The subject of the next series is DLD-2 human colon tumor. Briefly: In vivo human tumor xenograft DLD-2 in nude mice. The settings on record: for Tumor Growth Inhibition activity against DLD-2 (in words): NCI criteria. The source says:
(§2) The DLD-2 human colon tumor and MX-1 human mammary carcinoma, were originally obtained from a surgically-removed primary colon carcinoma or breast tumor respectively. The human tumor lines were maintained by serial passage in athymic nude mice. The MX-1 human mammary carcinoma is an established tumor used by the NCI. The DLD-2 human colon tumor has been well characterized. (Dexter, D. L.; Spremulli, E. N.; Matook, G. M.; Diamond, I.; Calabresi, P. Cancer Research 1982, 42, 5010; Dexter, D. L.; Barbosa, J. A.; Calabresi, P. Cancer Research 1979, 39, 1020.)
(§3) The mice used in these experiments were outbred Swiss mice or CD-1 mice bearing the nude (nu/nu) gene. On Day 0, male and female mice weighing 22-30 g are inoculated with 0.2 mL of a 25% tumor mince. This mince is prepared by mincing fresh tumor tissue, grown subcutaneously in passage mice, in sterile physiological saline. Palpable tumors weighing approximately 50 mg appear in the mice within 7-10 days after inoculation. The mice are pair matched by tumor weight and sex into groups of ten each and the test compounds and vehicle control are administered intravenously (i.v.) once daily for nine consecutive days. A >20% decrease in body weight on Day 5 following compound administration is considered an indication of toxicity. Tumor measurements and body weights are recorded once a week. Fifteen to eighteen days after the initial injection the mice are weighed, sacrificed, and the tumors excised and weighed.
(§4) The efficacy of the test compounds is determined by the extent of tumor growth inhibition in treated versus vehicle-treated control mice. Initial tumor weights (mg) are calculated from the tumor dimensions (mm) obtained from caliper measurements, using the formula for a prolate ellipsoid (mg of tumor weight=(length×width^2)/2). Net tumor weights are calculated for each of the treated groups and the vehicle-treated control group by subtracting the initial tumor weight from the final tumor weight (Day 15-18). Results are expressed as a percentage decrease relative to the mean tumor weight for the control vehicle-treated group.
(§5) Tumor Growth Inhibition= [formula]
(§6) The evaluation criteria of the National Cancer Institute for activity in in vivo cancer models were used. Tumor growth inhibition of 58-89% against the various xenografts is considered moderate activity, and inhibition of ≥90% is considered good to excellent activity. Actual tumor regressions (IR=incomplete regression; FR=full regression) indicate excellent to outstanding activity.

In series [3] the test system is MX-1 human mammary carcinoma. In words: In vivo human tumor xenograft MX-1 in nude mice. To be noted: for Tumor Growth Inhibition activity against MX-1 (in words): NCI criteria.
Source text: as §2, §3, §4, §5, §6

The mark [4] stands for this setting: 12.5 mg/kg, i.v. once daily for nine days, nude mice.
Where [5] appears, read: Mus musculus, DLD2, iv, 216 h, read-out: DLD-2 percent tumor growth inhibition.
Setting [6] is: i.v. once daily for nine days, nude mice.
The mark [7] stands for this setting: Mus musculus, DLD2, iv, 216 h, 12.5 mg/kg, i.v. once daily for nine days, nude mice, read-out: DLD-2 percent tumor growth inhibition.

`CS(=O)(=O)O.CS(=O)(=O)O.Cc1cnc2c(c1)cc1c3c(cc([N+](=O)[O-])cc32)C(=O)N([C@H](C)CNCCNC[C@@H](C)N2C(=O)c3cc([N+](=O)[O-])cc4c3c(cc3cc(C)cnc34)C2=O)C1=O` [Example 13, (R, R) -1,2-bis-[2-(3-Nitro-7-methyl-5-azaphenanthrene-1, 10-dicarboximido)propylamino]ethane Dihydromethanesulfonate]: the IC50 in series [1] (L1210, 72 h) was found to be 0.065 µg/mL; in series [2] (72 h), 0.03 µg/mL. Also, the “DLD-2 tumor regressions, IR=incomplete regression” value in the series on DLD-2 human colon tumor (setting [4]) is given as 1/9. The inhibition in vivo at 12.5 mg/kg in the series with DLD-2 human colon tumor (setting [5]) amounted to 90%; in series [3] (Mus musculus, iv, 216 h, read-out: MX-1 percent tumor growth inhibition), 99%. Besides, the “Tumor Growth Inhibition activity against DLD-2 (in words)” value in the series with DLD-2 human colon tumor (setting [6]) was “moderate to excellent”. For the same compound, in series [3] (Mus musculus, iv, 216 h, read-out: MX-1 tumor regressions, IR=incomplete regression), the responders at 12.5 mg/kg was 77.8%. Besides, in series [3] (setting [6]), the “Tumor Growth Inhibition activity against MX-1 (in words)” value is “moderate to excellent”. The same compound registered a solubility in “Solubility in water” of 7100 µg/mL.
Take `CS(=O)(=O)O.O=C1c2cc([N+](=O)[O-])cc3c2c(cc2cccnc23)C(=O)N1CCCNCCN1C(=O)c2cc([N+](=O)[O-])cc3c2c(cc2cccnc23)C1=O` [Example 3, 3-[2-(3-Nitro-5-azaphenanthrene-1,10-dicarboximido)ethylamino]-1-(3-nitro-5-azaphenanthrene-1, 10-dicarboximido) propane Hydromethanesulfonate]: the IC50 in series [1] (L1210, 72 h) was determined as 0.006 µg/mL; in series [2] (72 h), 0.004 µg/mL. Also, the inhibition in vivo at 20 mg/kg with DLD-2 human colon tumor (setting [5]) was 92%. The “Tumor Growth Inhibition activity against DLD-2 (in words)” value with DLD-2 human colon tumor (setting [6]) was “moderate to excellent”. In addition, the solubility in “Solubility in water” worked out at 80 µg/mL.
Take `CS(=O)(=O)O.O=C1c2cccc3cc([N+](=O)[O-])cc(c23)C(=O)N1CCCCNCCCN1C(=O)c2cccc3c2c(cc2ncccc23)C1=O` [Example 114, 4-[3-(8-Azaphenanthrene-1,10-dicarboximido)propylamino]-1-(3-nitronaphthalene-1,8-dicarboximido)butane Hydromethanesulfonate]: the IC50 in series [1] (L1210 cells, 72 hr, MTT) is under 0.01 µg/mL; in series [2] (Clone A cells, 72 hr, MTT), 0.001 µg/mL. In addition, in the series with DLD-2 human colon tumor (setting [4]), the “DLD-2 tumor regressions, IR=incomplete regression” value was 4/8. Moreover, the inhibition in vivo at 12.5 mg/kg in the series on DLD-2 human colon tumor (setting [7]) stood at 99%. Also, in the series on DLD-2 human colon tumor (setting [6]), the “Tumor Growth Inhibition activity against DLD-2 (in words)” value is recorded as “moderate to excellent”. Also, the inhibition in vivo at 12 mg/kg in series [3] (Mus musculus, iv, 216 h, 12 mg/kg, i.v. once daily for nine days, nude mice, read-out: MX-1 percent tumor growth inhibition) worked out at 98%. Also, the responders at 12 mg/kg in series [3] (Mus musculus, iv, 216 h, 12 mg/kg, i.v. once daily for nine days, nude mice, read-out: MX-1 tumor regressions, IR=incomplete regression (converted)) is 62.5%. The “Tumor Growth Inhibition activity against MX-1 (in words)” value in series [3] (setting [6]) is “moderate to excellent”. The solubility in the series “Solubility in water” was 680 µg/mL.
With `CS(=O)(=O)O.CS(=O)(=O)O.C[C@@H](CNCCNC[C@H](C)N1C(=O)c2cc([N+](=O)[O-])cc3c2c(cc2cccnc23)C1=O)N1C(=O)c2cc([N+](=O)[O-])cc3c2c(cc2cccnc23)C1=O` [Example 7, (S,S)-1,2-bis-[2-(3-Nitro-5-azaphenanthrene-1,10-dicarboximido)propylamino]ethane Dihydromethanesulfonate], the IC50 came out at 0.048 µg/mL in series [1] (L1210, 72 h) and 0.028 µg/mL in series [2] (72 h). Also, in the series on DLD-2 human colon tumor (setting [5]), the inhibition in vivo at 12.5 mg/kg is 83%. Also, the “Tumor Growth Inhibition activity against DLD-2 (in words)” value in the series on DLD-2 human colon tumor (setting [6]) is reported as “moderate to excellent”. Besides, the solubility in “Solubility in water” worked out at 680 µg/mL.
In the case of `CS(=O)(=O)O.O=C1c2cc([N+](=O)[O-])cc3c2c(cc2cccnc23)C(=O)N1CCCNCCCN1C(=O)c2cc([N+](=O)[O-])cc3c2c(cc2cccnc23)C1=O` [Example 4, 3-[3-(3-Nitro-5-azaphenanthrene-1,10-dicarboximido)propylamino]-1-(3-nitro-5-azaphenanthrene-1, 10-dicarboximido)propane Hydromethanesulfonate], the IC50 in series [1] (L1210, 72 h) was found to be 0.011 µg/mL; in series [2] (72 h), 0.005 µg/mL. The inhibition in vivo at 10 mg/kg with DLD-2 human colon tumor (setting [5]) stood at 57%. For the same compound, the solubility in “Solubility in water” turned out to be 450 µg/mL.
Consider `CS(=O)(=O)O.O=C1c2cccc3c2c(cc2cccnc23)C(=O)N1CCCCNCCCN1C(=O)c2cccc3c2c(cc2cccnc23)C1=O` [Example 1, 4-[3-(5-Azaphenanthrene-1,10-dicarboximido)propylamino]-1-(5-azaphenanthrene-1,10-dicarboximido) butane Hydromethanesulfonate], for which the IC50 in series [1] (L1210 cells, 72 hr, MTT) is 0.134 µg/mL; in series [2] (Clone A cells, 72 hr, MTT) it was 0.06 µg/mL. The inhibition in vivo at 25 mg/kg with DLD-2 human colon tumor (Mus musculus, DLD2, iv, 216 h, 25 mg/kg, i.v. once daily for nine days, nude mice, read-out: DLD-2 percent tumor growth inhibition) came to 16%. The compound also displayed a solubility in the series “Solubility in water” of 2300 µg/mL.
For `O=C1c2cc([N+](=O)[O-])cc3c2c(cc2cccnc23)C(=O)N1CCNCCN1C(=O)c2cc([N+](=O)[O-])cc3c2c(cc2cccnc23)C1=O` [Example 2, 2-[3-(3-Nitro-5-azaphenanthrene-1,10-dicarboximido)ethylamino]-1-(3-nitro-5-azaphenanthrene-1, 10-dicarboximido)ethane Hydromethanesulfonate], the IC50 stood at 0.02 µg/mL in series [1] (L1210 cells, 72 hr, MTT) and 0.044 µg/mL in series [2] (Clone A cells, 72 hr, MTT). Also, in the series on DLD-2 human colon tumor (setting [7]), the inhibition in vivo at 12.5 mg/kg came to 0%. The compound also returned a solubility in “Solubility in water” of 10 µg/mL.
For the compound `CS(=O)(=O)O.O=C1c2cc([N+](=O)[O-])cc3c2c(cc2ncccc23)C(=O)N1CCCCNCCCN1C(=O)c2cc([N+](=O)[O-])cc3c2c(cc2ncccc23)C1=O` [Example 18, 4-[3-(3-Nitro-8-azaphenanthrene-1,10-dicarboximido)propylamino]-1-(3-nitro-8-azaphenanthrene-1, 10-dicarboximido)butane Hydromethanesulfonate], the IC50 in series [1] (L1210, 72 h) was determined as 0.001 µg/mL; in series [2] (72 h) it was 0.007 µg/mL. In the series with DLD-2 human colon tumor (setting [5]), the inhibition in vivo at 12.5 mg/kg is 84%. Also, the “Tumor Growth Inhibition activity against DLD-2 (in words)” value in the series on DLD-2 human colon tumor (setting [6]) is “moderate to excellent”. The compound also showed a solubility in “Solubility in water” of 20 µg/mL.
Turning to `CS(=O)(=O)O.CS(=O)(=O)O.Cc1nc2cc3c4c(cccc4c2[nH]1)C(=O)N(CCCNCCCCN1C(=O)c2cccc4cc([N+](=O)[O-])cc(c24)C1=O)C3=O` [Example 140, 4-[3-(2-Methyl-1H-naphth[1,2-d]imidazole-5,6-dicarboximido)propylamino]-1-(3-nitronaphthalene-1,8-dicarboximido)butane Dihydromethanesulfonate], the IC50 in series [1] (L1210 cells, 72 hr, MTT) came to 0.425 µg/mL; in series [2] (Clone A cells, 72 hr, MTT) it was 0.101 µg/mL. In the series with DLD-2 human colon tumor (Mus musculus, DLD2, iv, 216 h, 50 mg/kg, i.v. once daily for nine days, nude mice, read-out: DLD-2 percent tumor growth inhibition), the inhibition in vivo at 50 mg/kg came to 0%. The compound also displayed a solubility in the series “Solubility in water” of 9000 µg/mL.
`CS(=O)(=O)O.O=C1c2cccc3c2c(cc2ncccc23)C(=O)N1CCCCNCCCN1C(=O)c2cccc3c2c(cc2ncccc23)C1=O` [Example 17, 4-[3-(8-Azaphenanthrene-1,10-dicarboximido)propylamino]-1-(8-azaphenanthrene-1,10-dicarboximido) butane Hydromethanesulfonate]: the half-maximal inhibitory concentration (IC50) stood at 0.001 µg/mL in series [1] (L1210 cells, 72 hr, MTT) and 0.001 µg/mL in series [2] (Clone A cells, 72 hr, MTT). Besides, the inhibition in vivo at 6.2 mg/kg in the series with DLD-2 human colon tumor (Mus musculus, DLD2, iv, 216 h, 6.2 mg/kg, i.v. once daily for nine days, nude mice, read-out: DLD-2 percent tumor growth inhibition) was 59%. Also, the “Tumor Growth Inhibition activity against DLD-2 (in words)” value in the series with DLD-2 human colon tumor (setting [6]) is reported as “moderate to excellent”.
As to `CS(=O)(=O)O.O=C1c2cc([N+](=O)[O-])cc3c2c(cc2cccnc23)C(=O)N1CCCCNCCCN1C(=O)c2cc([N+](=O)[O-])cc3c2c(cc2cccnc23)C1=O` [Example 5, 4-[3-(3-Nitro-5-azaphenanthrene-1, 10-dicarboximido)propylamino]-1-(3-nitro-5-azaphenanthrene-1, 10-dicarboximido)butane Hydromethanesulfonate], the 50% inhibitory concentration (IC50) in series [1] (L1210, 72 h) amounted to 0.006 µg/mL; in series [2] (72 h) it was 0.013 µg/mL. Also, in the series on DLD-2 human colon tumor (setting [5]), the inhibition in vivo at 10 mg/kg amounted to 82%. Besides, in the series with DLD-2 human colon tumor (setting [6]), the “Tumor Growth Inhibition activity against DLD-2 (in words)” value was “moderate to excellent”. In addition, the solubility in the series “Solubility in water” was 60 µg/mL.
